# Source: patent US20240123079A1 (Seagen Inc., priority 2021, published 2024)
# Read-outs that look alike come from different tables or passages of the source.
# Key:
# DEL = experiment: Cancer cell direct cytotoxicity assay (CellTiter-Glo), DEL; assay type: cell-based; details: Homo sapiens, 96 h, free compound, read-out: Compound X50
# Description: (§1) Bystander activity of ADCs was evaluated using Renca cancer cells and THP1-Dual™ cells (InvivoGen) which contain an IRF-Lucia luciferase reporter. Cells were cultured in RPMI-1640 (Gibco) with 10% heat-inactivated fetal bovine serum, Pen-Strep (100 U/ml-100 μg/ml, Gibco), HEPES (10 mM, Gibco), sodium pyruvate (1 mM, Gibco), MEM non-essential amino acids (1×, Gibco), GlutaMAX (1×, Gibco), and beta-mercaptoethanol (55 μM, Gibco). Renca cells were plated in a 96-well flat bottom tissue culture-treated clear polystyrene plate (Corning Costar #3596) at 50,000 cells per well in 100 μL. On the day following the initial plating, 50,000 THP1-Dual™ cells were added to each well with the indicated concentration of ADC in a total volume of 200 μL. Supernatant was harvested at 48 hours post addition of the THP1-Dual™ cells. To measure Lucia reporter signal, 10 μL of supernatant was combined with 40 μL of QUANTI-Luc™ Luminescence assay reagent (Invivogen PN: rep-qlc1) in a 96-well clear flat bottom tissue culture-treated black polystyrene plate (Corning Costar PN: 3603) and read on a Perkin Elmer Envision plate reader. In some experiments, HEK 293T cells engineered to express a murine protein typically expressed by immune cells (target antigen C— an immune cell antigen) were plated as above instead of Renca tumor cells. Cancer Cell Direct Cytotoxicity Assay
# (§2) Cancer cells were counted and plated in 40 μL complete growth media in 384-well, white-walled tissue culture treated plates (Corning). Cell plates were incubated at 37° C. and with 5% CO2 overnight to allow the cells to equilibrate. Stock solutions containing ADCs or free drugs were serially diluted in RPMI-1640+20% fetal bovine serum (FBS). 10 μL of each concentration were then added to each cell plate in duplicate. Cells were then incubated at 37° C. and with 5% CO2 for 96 hours, upon which, the cell plates were removed from the incubator and allowed to cool to room temperature for 30 minutes prior to analysis. […] The luminescence of the samples was measured using an EnVision Multimode plate reader (Perkin Elmer, Waltham, MA). […]
# [1] = tested on: THP1-Dual™ reporter cells; experiment: THP1-Dual cell reporter assay (IRF-Lucia luciferase reporter); assay type: cell-based, human; details: 24 h, free compounds, 24 h, Lucia reporter signal, read-out: EC50
# Outline: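 THP1-Dual monocytic cells (~100,000/well) were exposed to compound for 24 h (ADCs 48 h). Secreted IRF-driven Lucia luciferase in the supernatant was quantified by QUANTI-Luc luminescence.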
# DELBVR = experiment: Cancer cell direct cytotoxicity assay (CellTiter-Glo), DELBVR; assay type: cell-based; details: Homo sapiens, 96 h, free compound, read-out: Compound X50
# Description: as §1, §2
# SU-DHL-4 = experiment: Cancer cell direct cytotoxicity assay (CellTiter-Glo), SU-DHL-4; assay type: cell-based; details: Homo sapiens; SU-DHL-4, 96 h, free compound; read-out: Compound X50
# Description: as §1, §2
# MDAMB231 = experiment: Cancer cell direct cytotoxicity assay (CellTiter-Glo), MDAMB231; assay type: cell-based; details: Homo sapiens, MDA-MB-231; MDAMB231, 96 h, free compound; read-out: Compound X50
# Description: as §1, §2
# L540cy = experiment: Cancer cell direct cytotoxicity assay (CellTiter-Glo), L540cy; assay type: cell-based; details: Homo sapiens, 96 h, free compound, read-out: Compound X50
# Description: as §1, §2
# A2058 = experiment: Cancer cell direct cytotoxicity assay (CellTiter-Glo), A2058; assay type: cell-based; details: Homo sapiens; A2058, 96 h, free compound; read-out: Compound X50
# Description: as §1, §2
# human cancer cell lines = experiment: Cancer cell direct cytotoxicity assay, panel statement; assay type: cell-based; details: panel of human cancer cell lines
# Description: as §1
# Cancer cells were counted and plated in 40 μL complete growth media in 384-well, white-walled tissue culture treated plates (Corning). Cell plates were incubated at 37° C. and with 5% CO2 overnight to allow the cells to equilibrate. […] The luminescence of the samples was measured using an EnVision Multimode plate reader (Perkin Elmer, Waltham, MA). […]
# Compound 12a was conjugated to both targeted and non-binding antibodies using a variety of non-cleavable linkers (12, 17, 19-24) and the resulting ADCs were assessed for their ability to activate THP1-Dual™ reporter cells. […] We also evaluated the ability of these linkers to directly kill cancer cells when conjugated to targeted mAbs binding tumor antigen A or antigen B (CD30).
# MOLM-13 = experiment: Cancer cell direct cytotoxicity assay (CellTiter-Glo), MOLM-13; assay type: cell-based; details: Homo sapiens; MOLM-13, 96 h, free compound; read-out: Compound X50
# Description: as §1, §2
# Ls174T = experiment: Cancer cell direct cytotoxicity assay (CellTiter-Glo), Ls174T; assay type: cell-based; details: Homo sapiens, 96 h, free compound, read-out: Compound X50
# Description: as §1, §2
# Karpas299 = experiment: Cancer cell direct cytotoxicity assay (CellTiter-Glo), Karpas299; assay type: cell-based; details: Homo sapiens, KARPAS-299; Karpas299, 96 h, free compound; read-out: Compound X50
# Description: as §1, §2
# 786-O = experiment: Cancer cell direct cytotoxicity assay (CellTiter-Glo), 786-O; assay type: cell-based; details: Homo sapiens, 786-0, 96 h, free compound, read-out: Compound X50
# Description: as §1, §2
# BxPC3 = experiment: Cancer cell direct cytotoxicity assay (CellTiter-Glo), BxPC3; assay type: cell-based; details: Homo sapiens, BXPC-3; BxPC3, 96 h, free compound; read-out: Compound X50
# Description: as §1, §2
structure (smiles),measurement,setting,value
"CCn1nc(C)cc1C(=O)Nc1nc2cc(C(N)=O)cc(OC)c2n1C/C=C/Cn1c(NC(=O)c2cc(C)nn2CC)nc2cc(C(N)=O)cc(OCCCN(C)C(=O)CCN3C(=O)CC(SC[C@H](N)C(=O)O)C3=O)c21 (stereo partly drawn) [Compound 16, S-(1-(3-((3-((5-carbamoyl-1-((E)-4-(5-carbamoyl-2-(1-ethyl-3-methyl-1H-pyrazole-5-carboxamido)-7-methoxy-1H-benzo[d]imidazol-1-yl)but-2-en-1-yl)-2-(1-ethyl-3-methyl-1H-pyrazole-5-carboxamido)-1H-benzo[d]imidazol-7-yl)oxy)propyl)(methyl)amino)-3-oxopropyl)-2,5-dioxopyrrolidin-3-yl)-L-cysteine]",IC50,DEL,4 nM
same,EC50,"[1]; Homo sapiens, THP1-Dual",34 nM
same,EC50,[1],52 nM
same,IC50,DELBVR,7 nM
same,IC50,SU-DHL-4,> 1000 nM
same,IC50,MDAMB231,> 1000 nM
same,IC50,L540cy,29 nM
same,IC50,A2058,> 1000 nM
same,direct cytotoxic activity on cancer cell lines,human cancer cell lines,demonstrated direct cytotoxic activity on a subset of cancer cell lines
same,IC50,MOLM-13,27 nM
same,IC50,Ls174T,> 1000 nM
same,IC50,Karpas299,> 1000 nM
same,IC50,786-O,> 1000 nM
same,IC50,BxPC3,> 1000 nM
